Reference: article PMC2917178 (Biochemistry, 2010)
Entries after “also recorded” stand apart in the source; their conditions may differ. Where two headings read alike, the source gives them in different places.

Tests used:
[1] = biological target: T1, Rtt109-Vps75 (Saccharomyces cerevisiae, UniProt P53853+Q07794); test: Isothermal titration calorimetry into Rtt109-Vps75; type: binding, yeast (Saccharomyces cerevisiae)
T1 sequence (Q07794 1-436): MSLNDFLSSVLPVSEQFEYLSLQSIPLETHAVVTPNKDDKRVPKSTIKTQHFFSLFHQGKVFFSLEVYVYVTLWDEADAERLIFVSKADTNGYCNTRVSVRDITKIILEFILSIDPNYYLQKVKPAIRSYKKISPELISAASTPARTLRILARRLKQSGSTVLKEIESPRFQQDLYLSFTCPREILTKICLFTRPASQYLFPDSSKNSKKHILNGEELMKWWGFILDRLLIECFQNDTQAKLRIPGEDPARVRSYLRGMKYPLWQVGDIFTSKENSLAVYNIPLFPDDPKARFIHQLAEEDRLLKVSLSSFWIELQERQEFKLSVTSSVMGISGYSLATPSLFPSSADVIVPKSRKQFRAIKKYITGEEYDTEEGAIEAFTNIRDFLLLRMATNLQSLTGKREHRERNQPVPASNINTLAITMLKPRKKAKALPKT
T1 sequence (P53853 1-264 partner): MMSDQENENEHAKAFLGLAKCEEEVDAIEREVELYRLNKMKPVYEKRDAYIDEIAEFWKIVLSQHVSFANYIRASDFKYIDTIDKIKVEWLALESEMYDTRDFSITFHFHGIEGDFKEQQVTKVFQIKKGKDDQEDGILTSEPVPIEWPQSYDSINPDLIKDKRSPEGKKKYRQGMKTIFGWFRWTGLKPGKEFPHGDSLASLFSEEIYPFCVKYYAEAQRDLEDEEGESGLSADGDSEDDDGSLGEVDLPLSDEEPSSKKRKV

[2] = biological target: T1, Rtt109-Vps75; test: CoA product inhibition of Rtt109-Vps75; type: biochemical, yeast (Saccharomyces cerevisiae)
[3] = test system: Rtt109; test: HAT activity with fluorescein-labeled Vps75; type: biochemical, yeast; conditions: fluorescein-5-maleimide labeled Vps75, 1:1 label to Vps75
[4] = biological target: Rtt109 D287N (with Vps75) (Saccharomyces cerevisiae, UniProt P53853+Q07794, D287N); type: biochemical, yeast (Saccharomyces cerevisiae); conditions: AcCoA varied 0.5-30 μM, 400 μM H3 peptide, 0.1-0.5 μM Rtt109 variant, 4 μM Vps75, 50 mM Tris pH 7.5, 25 °C
Chain of Rtt109 D287N (with Vps75) (Q07794 whole entry D287N, one chain of several): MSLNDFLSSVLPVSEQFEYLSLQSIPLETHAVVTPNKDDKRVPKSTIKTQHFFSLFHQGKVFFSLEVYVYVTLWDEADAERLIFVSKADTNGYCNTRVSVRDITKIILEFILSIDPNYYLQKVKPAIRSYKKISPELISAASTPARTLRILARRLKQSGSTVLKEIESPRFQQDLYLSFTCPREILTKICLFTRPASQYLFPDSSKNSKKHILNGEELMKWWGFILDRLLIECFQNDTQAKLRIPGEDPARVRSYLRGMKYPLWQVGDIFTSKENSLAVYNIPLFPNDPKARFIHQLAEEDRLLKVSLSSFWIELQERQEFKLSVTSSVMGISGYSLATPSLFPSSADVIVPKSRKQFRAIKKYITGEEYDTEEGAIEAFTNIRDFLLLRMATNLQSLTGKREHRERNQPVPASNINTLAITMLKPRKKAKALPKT

[5] = biological target: Rtt109 D288N (with Vps75) (Saccharomyces cerevisiae, UniProt P53853+Q07794, D288N); type: biochemical, yeast (Saccharomyces cerevisiae); conditions: AcCoA varied 0.5-30 μM, 400 μM H3 peptide, 0.1-0.5 μM Rtt109 variant, 4 μM Vps75, 50 mM Tris pH 7.5, 25 °C
Chain of Rtt109 D288N (with Vps75) (Q07794 whole entry D288N, one chain of several): as the sequence (Q07794 whole entry D287N, one chain of several) above, with N287D, D288N counted along it

[6] = test system: p300; conditions: cited from earlier work
[7] = Stability of Rtt109 alone; type: physicochemical; conditions: without AcCoA or Vps75, 25°C

## CC(C)(COP(=O)(O)OP(=O)(O)OC[C@H]1O[C@@H](n2cnc3c(N)ncnc32)[C@H](O)[C@@H]1OP(=O)(O)O)[C@@H](O)C(=O)NCCC(=O)NCCS [CoA, Coenzyme A]
[1]
  Kd: 43 ± 5 µM
[2]
  Ki: 110 ± 20 µM
[2]; varied AcCoA, fixed CoA, 5 μM full-length H3, double reciprocal plot
  product inhibition pattern versus AcCoA: binds competitively with AcCoA; also recorded: competitive inhibition

## labeled Vps75: Vps75 labeled with fluorescein-5-maleimide, 1:1
[3]
  loss in HAT activity on fluorescein labeling: < 2 fold

## CC(=O)SCCNC(=O)CCNC(=O)[C@H](O)C(C)(C)COP(=O)(O)OP(=O)(O)OC[C@H]1O[C@@H](n2cnc3c(N)ncnc32)[C@H](O)[C@@H]1OP(=O)(O)O [AcCoA, acetyl-Coenzyme A]
[1]; 167 μM AcCoA titrated into 5.8 μM Rtt109-Vps75, 50 mM Tris pH 7.5 at 25°C, 5% glycerol, 50 mM NaCl, 2 mM β-mercaptoethanol, 1 mM EDTA, one-site model
  Kd: 1.4 ± 0.3 µM
[1]; ratio of binding affinities, Rtt109-Vps75
  binding affinity for AcCoA over CoA: 30 fold
[4]
  Km: 0.7 ± 0.3 µM
  kcat: 1.2 ± 0.1 × 10^-2 s^-1
  kcat/Km: 1.7 ± 0.7 × 10^4 M^-1s^-1
[5]
  Km: 4.9 ± 0.9 µM
  kcat: 2.8 ± 0.2 × 10^-3 s^-1
  kcat/Km: 6 ± 1 × 10^2 M^-1s^-1

## p300: mammalian HAT, structural homolog of Rtt109
[6]
  pKa of ionizable group required for catalysis: 8.4

## Rtt109: yeast histone acetyltransferase, Regulator of Ty1 Transposition 109
[7]
  stability of protein alone: unstable and precipitates at 25 °C; also recorded: unstable protein and is highly prone to aggregation
